The structures appear in SMILES notation.

The subject of series [1] is MOLM-13. The series is described as follows: Antiproliferative activity against human MOLM-13 cells measured after 72 hrs by WST-1 assay. The format is functional, cell-based. The note with it: MOLM-13, 72 h. Background: Tetrazolium dyes change colour on reduction, which living cells bring about.
Series [2] relates to MOLM-13. The series is described as follows: Induction of apoptosis in human MOLM-13 cells incubated for 72 hrs and assessed as presence of apoptotic nuclei. The series is classed as functional, cell-based. The conditions noted are these: MOLM-13, 72 h.
Series [3] deals with T1, Serine/threonine-protein kinase pim-1 (Homo sapiens, UniProt P11309). Briefly: Inhibition of full-length human Pim-1 using RSRHSSYPAG as substrate incubated in presence of [gamma33P]ATP and assessed as residual activity at 1 uM relative to control.
Target sequence in this assay (P11309 whole entry, looked up): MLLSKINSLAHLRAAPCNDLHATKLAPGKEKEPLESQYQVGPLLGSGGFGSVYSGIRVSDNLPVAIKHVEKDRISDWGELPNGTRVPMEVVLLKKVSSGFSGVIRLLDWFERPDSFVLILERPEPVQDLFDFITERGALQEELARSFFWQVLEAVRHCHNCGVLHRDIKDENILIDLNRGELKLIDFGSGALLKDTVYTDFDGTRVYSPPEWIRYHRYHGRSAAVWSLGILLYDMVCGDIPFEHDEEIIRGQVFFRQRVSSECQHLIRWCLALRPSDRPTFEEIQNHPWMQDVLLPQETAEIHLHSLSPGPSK
For series [4], the target named is T1, Serine/threonine-protein kinase pim-1. Briefly: Inhibition of full-length human Pim-1 using RSRHSSYPAG as substrate incubated in presence of [gamma33P]ATP and assessed as residual activity at 10 uM relative to control.
Target sequence in this assay (P11309 whole entry, looked up): as above
Series [5] has as its system MOLM-13. Briefly: Antiproliferative activity against human MOLM-13 cells measured after 24 hrs by WST-1 assay. The format is functional, cell-based. The conditions noted are these: MOLM-13, 24 h.
The target of series [6] is T1, Serine/threonine-protein kinase pim-1. The series is described as follows: Inhibition of full-length human Pim-1 using RSRHSSYPAG as substrate incubated in presence of [gamma33P]ATP.
Target sequence in this assay (P11309 whole entry): as the sequence (P11309 whole entry, looked up) above
Series [7] is described as follows: Cytotoxicity against rat NRK cells measured after 72 hrs by WST-1 assay. The format is toxicity, cell-based.

Consider `FC(F)(F)c1cc2[nH]ncc2c2c1ncc1ccccc12`, for which the EC50 was 1200 nM in series [1] and > 250 µM in series [2]. Also, the values for the Activity in series [3] and in series [4] were 43% and 18%, respectively.

As to `O=[N+]([O-])c1cc2[nH]nc(I)c2c2c1ncc1ccccc12`, the EC50 was determined as 1700 nM in series [1], 6.6 µM in series [2] and 3.5 µM in series [5]. In addition, in series [6], the IC50 came out at 50 nM. The Activity in series [3] is 8.6%; in series [4], 1.4%. Moreover, in series [7], the midpoint of the response, the EC50 at 72 h, lay at 28 µM.

In the case of `NC(=O)c1cc2[nH]ncc2c2c1ncc1ccccc12`, the EC50 in series [1] is 2500 nM; in series [2] it was > 250 µM. Moreover, in series [6], the IC50 stood at 125 nM. For the same compound, the Activity in series [3] came to 23%; in series [4], 7%.

Consider `C=Cc1n[nH]c2cc([N+](=O)[O-])c3ncc4ccccc4c3c12`, for which the 50% effective concentration (EC50) in series [1] stood at 1700 nM; in series [2], 4.6 µM; in series [5], 2.9 µM. Also, in series [6], the IC50 came out at 31 nM. In addition, the values for the Activity in series [3] and in series [4] were 5.3% and 1.5%, respectively. In series [7], this compound had an EC50 at 72 h of 24 µM.

As for `O=C(O)c1cc2[nH]ncc2c2c1ncc1ccccc12`, the EC50 in series [1] is 62000 nM; in series [2] it was > 250 µM; in series [5] it was > 250 µM. Moreover, the Activity in series [3] came out at 77%; in series [4], 29%.

Consider `O=[N+]([O-])c1cc2[nH]ncc2c2c1ncc1ccccc12`, for which the concentration for a half-maximal effect (EC50) in series [1] was determined as 200 nM; in series [2] it was 3.7 µM; in series [5], 0.8 µM. For the same compound, in series [7], the EC50 at 72 h is > 30 µM.

Consider `COC(=O)c1cc2[nH]ncc2c2c1ncc1ccccc12`, for which the EC50 came to 30000 nM in series [1], 61 µM in series [2] and 50 µM in series [5]. In addition, the results for the Activity in series [3] and in series [4] were 38% and 21%, respectively.

Broadly, the EC50 is the concentration giving half of the maximal effect. The term IC50 denotes the point on the concentration scale where inhibition reaches its midpoint.

The values above are taken from ChEMBL document CHEMBL5104151, “Synthesis of new pyrazolo[4,3-a]phenanthridine Pim-1 inhibitors and evaluation of their cytotoxic activity towards the MOLM-13 acute myeloid leukemia cell line” (Bioorg Med Chem Lett, 2022).
